Data taken from patent publication US4923697A, “Antioxidant compositions and methods” (Bar-Ilan University, priority 1986, dated 1990).

These compounds were tested on skin of adult mice (assay: TBA test of peroxide level in skin of adult shaved mice). Settings: 0.1% in Oil of Olay.
Type: in vivo, mouse
Description: Samples of creams and appropriate controls were applied to mice or rat skin for a fixed period. The application was done once a day. Experiments were terminated by killing the animal, peeling the skin and freezing it in liquid nitrogen. Samples of the frozen skin were homogenized in 0.2.M phosphate buffer, pH 6.5. After centrifugation, the supernatant was collected and analyzed for the peroxide value using the TBA (thiobarbituric acid) test as described by Sinnhuber et. al, Food Res. 23: 620 (1958).
In these experiments adult mice (2 months old) were treated as described in Example 2. The grown mice were shaved before applying the creams to the skin. In this experiment the antioxidant was dissolved in Oil of Olay. Mice were sacrificed after 21 days.

Row | SMILES | reduction of the level of peroxides in the skin
1 | COc1ccc(O)c(C(C)(C)C)c1 [BHA, butylated hydroxy anisole] | no reduction of the level of peroxides was observed
2 | Cc1cc(C(C)(C)C)c(O)c(C(C)(C)C)c1 [BHT, butylated hydroxy toluene] | no reduction of the level of peroxides was observed
3 | Cc1c(C)c2c(c(C)c1O)CCC(C)(CCCC(C)CCCC(C)CCCC(C)C)O2 (stereo not drawn) [alpha tocopherol, alpha-tocopherol] | no reduction of the level of peroxides was observed
